Positions of bridges follow the written chain, without caps; N, C: chain ends. Non-standard residues stand in square brackets, D forms with d. Residues, ends and D or L forms follow the SMILES beside them. NMeR = CN[C@@H](CCCNC(=N)N)C(=O)O; hArg = N=C(N)NCCCC[C@H](N)C(=O)O; 3Amb = NCc1cccc(C(=O)O)c1; dAbu = CC[C@@H](N)C(=O)O; Mpa = O=C(O)CCS
How the values were obtained:
Homo sapiens [1] = species on record: Homo sapiens; assay: half-life was measured on unactivated human platelets
[2] = In vitro inhibition of gel filtered platelet aggregation induced by ADP.
[3] = oral bioavailability was measured in rhesus monkeys; assay type: ADME, organism-based, Macaca mulatta; conditions: rhesus monkey, in vivo
[4] = oral bioavailability was measured in dogs; assay type: ADME, organism-based, Canis lupus familiaris; conditions: dog, in vivo
[5] = biological target: T1, Integrin alpha-IIb/beta-3 (Homo sapiens, UniProt P05106+P08514); assay: Inhibition of alpha IIb beta III mediated platelet aggregation
Target sequence in this assay (P05106 27-788 limits assumed): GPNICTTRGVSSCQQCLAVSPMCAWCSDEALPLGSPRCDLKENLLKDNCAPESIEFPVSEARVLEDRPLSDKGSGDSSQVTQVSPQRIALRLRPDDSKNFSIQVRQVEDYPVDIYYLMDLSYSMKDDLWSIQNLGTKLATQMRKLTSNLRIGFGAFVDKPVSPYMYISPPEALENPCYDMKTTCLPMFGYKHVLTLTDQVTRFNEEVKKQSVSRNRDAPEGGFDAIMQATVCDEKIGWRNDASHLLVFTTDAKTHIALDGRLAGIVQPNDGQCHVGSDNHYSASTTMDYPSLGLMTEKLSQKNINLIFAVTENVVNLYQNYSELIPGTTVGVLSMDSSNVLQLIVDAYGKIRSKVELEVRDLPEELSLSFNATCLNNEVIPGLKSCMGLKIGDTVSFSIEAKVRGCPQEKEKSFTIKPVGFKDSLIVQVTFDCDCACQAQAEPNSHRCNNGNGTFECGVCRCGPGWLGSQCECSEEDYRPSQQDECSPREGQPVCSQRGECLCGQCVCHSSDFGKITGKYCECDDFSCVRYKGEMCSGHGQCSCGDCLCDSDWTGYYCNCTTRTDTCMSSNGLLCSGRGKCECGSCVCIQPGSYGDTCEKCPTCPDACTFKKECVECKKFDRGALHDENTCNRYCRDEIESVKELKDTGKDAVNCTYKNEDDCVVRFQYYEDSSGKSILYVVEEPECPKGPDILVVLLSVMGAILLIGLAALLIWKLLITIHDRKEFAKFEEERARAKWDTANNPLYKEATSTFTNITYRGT
Target sequence in this assay (P08514 32-887 limits assumed): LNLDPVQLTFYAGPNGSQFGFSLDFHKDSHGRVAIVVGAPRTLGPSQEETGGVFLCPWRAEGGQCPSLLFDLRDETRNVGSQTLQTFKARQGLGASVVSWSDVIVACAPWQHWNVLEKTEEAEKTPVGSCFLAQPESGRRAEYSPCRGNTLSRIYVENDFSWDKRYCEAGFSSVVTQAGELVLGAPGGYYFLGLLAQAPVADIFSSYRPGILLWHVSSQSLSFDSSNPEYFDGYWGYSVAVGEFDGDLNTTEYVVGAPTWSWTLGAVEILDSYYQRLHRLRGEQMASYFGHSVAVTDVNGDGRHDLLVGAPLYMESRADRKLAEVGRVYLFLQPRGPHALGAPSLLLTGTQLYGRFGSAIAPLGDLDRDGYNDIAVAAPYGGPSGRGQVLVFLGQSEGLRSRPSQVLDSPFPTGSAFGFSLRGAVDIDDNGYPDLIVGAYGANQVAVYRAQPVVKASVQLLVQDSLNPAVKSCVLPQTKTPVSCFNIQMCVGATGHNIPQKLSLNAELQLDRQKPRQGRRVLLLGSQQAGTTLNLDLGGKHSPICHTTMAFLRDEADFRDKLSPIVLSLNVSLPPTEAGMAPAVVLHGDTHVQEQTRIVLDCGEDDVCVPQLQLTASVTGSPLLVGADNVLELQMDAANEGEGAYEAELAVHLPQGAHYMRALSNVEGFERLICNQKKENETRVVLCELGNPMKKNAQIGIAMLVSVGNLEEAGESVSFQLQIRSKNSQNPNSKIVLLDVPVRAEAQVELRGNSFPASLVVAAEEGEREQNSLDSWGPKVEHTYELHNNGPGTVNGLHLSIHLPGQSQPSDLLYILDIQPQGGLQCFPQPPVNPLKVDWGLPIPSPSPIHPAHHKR
Target sequence in this assay (P08514 891-1039 limits assumed): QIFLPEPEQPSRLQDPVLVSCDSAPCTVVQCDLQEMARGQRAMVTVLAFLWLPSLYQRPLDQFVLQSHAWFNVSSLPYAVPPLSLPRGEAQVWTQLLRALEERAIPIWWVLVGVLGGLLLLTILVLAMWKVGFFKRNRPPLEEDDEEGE

[6] = Duration of action in dog at a dose of 1 mg/kg i.d.; assay type: ADME, organism-based, Canis lupus familiaris; parameters: dose 1 mg/kg, route intraduodenal; conditions: in vivo, other
[7] = biological target: T1, Integrin alpha-IIb/beta-3; assay: Inhibition of [125]fibrinogen binding to alpha IIb beta-3 integrin; assay type: protein-complex assay
Target sequence in this assay (P05106 27-788 limits assumed): as the sequence (P05106 27-788 limits assumed) above
Target sequence in this assay (P08514 32-887 limits assumed): as the sequence (P08514 32-887 limits assumed) above
Target sequence in this assay (P08514 891-1039 limits assumed): as the sequence (P08514 891-1039 limits assumed) above

[8] = biological target: T1, Integrin alpha-IIb/beta-3; assay: Inhibition of fibrinogen binding to alpha IIb beta-3 integrin; assay type: protein-complex assay
Target sequence in this assay (P05106 27-788 limits assumed): as the sequence (P05106 27-788 limits assumed) above
Target sequence in this assay (P08514 32-887 limits assumed): as the sequence (P08514 32-887 limits assumed) above
Target sequence in this assay (P08514 891-1039 limits assumed): as the sequence (P08514 891-1039 limits assumed) above

[9] = biological half-life was measured on dog; assay type: ADME, organism-based, Canis lupus familiaris; conditions: in vivo
[10] = oral bioavailability was measured on rats; assay type: ADME, organism-based; conditions: rat, in vivo
[11] = oral bioavailability was measured on rhesus monkey; assay type: ADME, organism-based, Macaca mulatta; conditions: in vivo
[12] = biological half-life was measured on rhesus monkeys; assay type: ADME, organism-based, Macaca mulatta; conditions: rhesus monkey, in vivo
[13] = biological half-life was measured on dogs; assay type: ADME, organism-based, Canis lupus familiaris; conditions: dog, in vivo
[14] = biological target: T1, Integrin alpha-IIb/beta-3; assay: Inhibition of ex vivo maximal platelet aggregation in conscious dogs after oral administration of 4 mg/kg; conditions: Canis lupus familiaris; target entry is the homologue from another species; at 4 mg/kg
[15] = biological target: T1, Integrin alpha-IIb/beta-3; assay: Inhibition of fibrinogen binding to alpha IIb beta-3 integrin using thrombin inhibitor PPACK as anticoagulant; assay type: functional
Target sequence in this assay (P05106 27-788 limits assumed): as the sequence (P05106 27-788 limits assumed) above
Target sequence in this assay (P08514 32-887 limits assumed): as the sequence (P08514 32-887 limits assumed) above
Target sequence in this assay (P08514 891-1039 limits assumed): as the sequence (P08514 891-1039 limits assumed) above

[16] = oral bioavailability was measured on dogs and rats; assay type: ADME, organism-based; conditions: eutheria, in vivo
[17] = Oral bioavailability in dog; assay type: ADME, organism-based, Canis lupus familiaris; conditions: in vivo
[18] = biological target: T1, Integrin alpha-IIb/beta-3; assay: Inhibition of fixed platelet aggregation; assay type: functional
Target sequence in this assay (P05106 27-788 limits assumed): as the sequence (P05106 27-788 limits assumed) above
Target sequence in this assay (P08514 32-887 limits assumed): as the sequence (P08514 32-887 limits assumed) above
Target sequence in this assay (P08514 891-1039 limits assumed): as the sequence (P08514 891-1039 limits assumed) above

[19] = biological target: T1, Integrin alpha-IIb/beta-3; assay: Inhibition of fibrinogen binding to activated platelets
Target sequence in this assay (P05106 27-788 limits assumed): as the sequence (P05106 27-788 limits assumed) above
Target sequence in this assay (P08514 32-887 limits assumed): as the sequence (P08514 32-887 limits assumed) above
Target sequence in this assay (P08514 891-1039 limits assumed): as the sequence (P08514 891-1039 limits assumed) above

[20] = biological target: T1, Integrin alpha-IIb/beta-3; assay: Dissociation constant for alpha IIb beta-3 integrin rested platelets; assay type: functional
[21] = biological target: T1, Integrin alpha-IIb/beta-3; assay: Inhibition of platelet aggregation after 0.25 mg/kg/day dose over 4 days at trough plasma concentrations in dogs; assay type: functional, organism-based; conditions: Canis lupus familiaris, target entry is the homologue from another species
[22] = Inhibition of vitronectin receptor binding; parameters: species or system Homo sapiens
[23] = biological target: T1, Integrin alpha-IIb/beta-3; assay: Inhibition of platelet aggregation after oral administration of 3 mg/kg to guinea pigs within 1 hr; assay type: functional, organism-based; parameters: dose 3 mg/kg; conditions: Cavia porcellus; target entry is the homologue from another species; at 3 mg/kg
[24] = biological target: T1, Integrin alpha-IIb/beta-3; assay: Inhibition of platelet aggregation after oral administration of 3 mg/kg to guinea pigs at 8 hr; assay type: functional, organism-based; parameters: dose 3 mg/kg; conditions: Cavia porcellus; target entry is the homologue from another species; at 3 mg/kg
[25] = biological target: T1, Integrin alpha-IIb/beta-3; assay: Inhibition of platelet aggregation after administration of 10 ug/kg iv to dogs at 8 hr; assay type: functional, organism-based; conditions: Canis lupus familiaris; target entry is the homologue from another species
[26] = biological target: T1, Integrin alpha-IIb/beta-3; assay: Percent inhibition of gel filtered platelet aggregation induced by ADP; assay type: functional; conditions: concentration not given here
[27] = biological target: T1, Integrin alpha-IIb/beta-3; assay: Inhibition of platelet aggregation after administration of 0.1 mg/kg at 24 hr; conditions: Canis lupus familiaris
[28] = biological target: T1, Integrin alpha-IIb/beta-3; assay: Inhibition of platelet aggregation after administration of 10 ug/kg iv to dogs within 1 min; assay type: functional, organism-based; conditions: Canis lupus familiaris; target entry is the homologue from another species
Homo sapiens [29] = species on record: Homo sapiens; assay: biological half-life was measured on unactivated human platelets
[30] = The biological half life was measured on dog; assay type: ADME, organism-based, Canis lupus familiaris; conditions: in vivo
[31] = half-life of compound in human; conditions: in vivo
[32] = biological target: T1, Integrin alpha-IIb/beta-3; assay: Dissociation constant for [3H]-DMP728 binding to alphaIIb beta III integrin; assay type: protein-complex assay
[33] = oral bio availability was measured on dogs; assay type: ADME, organism-based, Canis lupus familiaris; conditions: dog, in vivo
[34] = biological target: T1, Integrin alpha-IIb/beta-3; assay: Inhibition of ex vivo platelet aggregation after oral administration of 0.5 mg/kg to cynomolgus monkeys at 2-8h; assay type: functional, organism-based; parameters: dose 0.5 mg/kg; conditions: at 0.5 mg/kg
[35] = Half-life in humans; assay type: ADME, organism-based; conditions: human, in vivo
[36] = Bioavailability in humans; assay type: ADME, organism-based; conditions: human, in vivo
[37] = biological target: T1, Integrin alpha-IIb/beta-3; assay: Inhibition of platelet aggregation after administration of 30 ug/kg iv bolus to dogs within first 1-15 min; assay type: functional, organism-based; conditions: Canis lupus familiaris; target entry is the homologue from another species
[38] = half life was measured on dogs; assay type: ADME, organism-based, Canis lupus familiaris; conditions: dog, in vivo
[39] = Inhibition of platelet aggregation
[40] = biological target: T1, Integrin alpha-IIb/beta-3; assay: Inhibition of platelet aggregation after 10 ug/kg/day dose over 6 days in dogs; assay type: functional; conditions: Canis lupus familiaris; target entry is the homologue from another species

Cc1noc(C)c1S(=O)(=O)N[C@@H](CNC(=O)C[C@H]1CC(c2ccc(C(=N)N)cc2)=NO1)C(=O)O
T1/2 (Homo sapiens [1]): 0.533 h

O=C(NC[C@H](NS(=O)(=O)c1cccnc1)C(=O)O)c1ccc2c(c1)C(=O)N(CCC1CCNCC1)C2
IC50 [2]: 15 nM

O=C(NC[C@H](NS(=O)(=O)c1ccccc1)C(=O)O)c1cc2sc(CCC3CCNCC3)cc2s1
IC50 [2]: 7 nM

C#C[C@H](CC(=O)OCC)NC(=O)CN1CCc2ccc(N3CCNCC3)cc2C1=O
bioavailability [3]: 32%
bioavailability [4]: > 17%

N=C(N)c1ccc(C(=O)Nc2ccc3c(c2)CCN(CC(=O)O)C3=O)cc1
IC50 [2]: 90 nM

CN1Cc2cc(C(=O)N3CCC(C4CCNCC4)CC3)ccc2N[C@@H](CC(=O)O)C1=O [LOTRAFIBAN]
Kd [5]: 1.85 nM
duration of action [6]: > 8 h

CC(=O)N[C@H]1CSSC[C@@H](C(N)=O)NC(=O)[C@H](CC(=O)O)NC(=O)CNC(=O)[C@H](CCCN=C(N)N)N(C)C1=O (Ac-C[NMeR]GDC-NH2; disulfide 1-5)
IC50 [7]: 2.8 nM
IC50 [8]: 480 nM
half-life [9]: 1.1 h

CCOC(=O)CCN1CC(=O)N(C)c2ccc(C#Cc3ccc(C(=N)NC(=O)OCC)cc3)cc2C1=O
bioavailability [10]: 6%
bioavailability [11]: 21%

C[C@H](NC(=O)c1ccc(C(=N)N)cc1)C(=O)N1CCC(OCC(=O)O)CC1 [RO-44-3888]
half-life [12]: 5.1 h
half-life [13]: 11.4 h

CN1C(=O)CN(CCC(=O)O)C(=O)c2cc(C#Cc3ccc(C(=N)N)cc3)ccc21
IC50 [2]: 120 nM

N=C(N)c1ccc2oc(C(=O)NCCC(=O)NC[C@H](NS(=O)(=O)c3ccccc3)C(=O)O)cc2c1
IC50 [2]: 35 nM

O=C(O)CCNC(=O)c1ccc2c(c1)C(=O)N(CCC1CCNCC1)C2
inhibition [14]: 90%
IC50 [2]: 25 nM

N=C(N)NCCCC[C@@H]1NC(=O)CCSSC[C@@H](C(N)=O)NC(=O)[C@@H]2CCCN2C(=O)[C@H](Cc2c[nH]c3ccccc23)NC(=O)[C@H](CC(=O)O)NC(=O)CNC1=O [EPTIFIBATIDE] ([Mpa][hArg]GDWPC-NH2; disulfide 1-7)
IC50 [15]: 570 nM

C[C@@H](COc1ccc(N2CCN(c3ccncc3)CC2)cc1)CC(=O)O
bioavailability [16]: > 50%

C#C[C@H](CC(=O)OCC)NC(=O)CCC(=O)Nc1ccc(C(=N)N)cc1 [XEMILOFIBAN]
F [17]: 53%

CCN(CC(=O)N[C@@H](CC(=O)O)C(=O)N[C@@H](Cc1ccccc1)C(N)=O)C(=O)CCCC1CCNCC1
IC50 [18]: 97 nM
IC50 [19]: 28 nM

CCCCS(=O)(=O)N[C@@H](CNC(=O)c1cc2n(n1)CCN(CCC1CCNCC1)C2=O)C(=O)O
Kd [20]: 1.4 nM

CCOC(=O)CCNC(=O)N[C@H]1CCN(c2ccc(C(=N)N)cc2)C1=O [ORBOFIBAN]
bioavailability [17]: 28%
half-life [9]: 18 h

O=C(NC[C@H](NS(=O)(=O)c1ccccc1)C(=O)O)c1cc2cc(OCC3CCNCC3)ccc2[nH]1
inhibition [21]: 95%

CN1C(=O)c2ccccc2SSc2ccccc2NC(=O)[C@H](CC(=O)O)NC(=O)CNC(=O)[C@@H]1CCCN=C(N)N [SKF-107260]
Ki [22]: 3.5 nM

COC(=O)C[C@H]1C(=O)N(CC(=O)O)CCN1C(=O)CNC(=O)c1ccc(C(=N)N)cc1
inhibition [23]: > 90%
inhibition [24]: 40%

Cc1ccc(S(=O)(=O)N[C@@H](CNC(=O)c2cc3n(n2)CCCN(CCC2CCNCC2)C3=O)C(=O)O)cc1
inhibition [25]: > 90%
inhibition [26]: 66%
inhibition [27]: 87%
inhibition [28]: 79%

O=C(CCCC1CCNCC1)NCC(=O)N[C@H](CCc1c[nH]c2ccccc12)C(=O)O
bioavailability [4]: 4.9%

CCCCOC(=O)N[C@@H](CNC(=O)C[C@H]1CC(c2ccc(C(=N)N)cc2)=NO1)C(=O)O
T1/2 (Homo sapiens [29]): 7 min

C#C[C@H](CC(=O)O)NC(=O)CCC(=O)Nc1ccc(C(=N)N)cc1
bioavailability [17]: 53%
half-life [30]: 6.5 h

CC(=O)N[C@@H](CCCN=C(N)N)C(=O)NCC(=O)N[C@@H](CC(=O)O)C(=O)N[C@H](C(N)=O)C(C)C (Ac-RGDV-NH2)
IC50 [8]: 27000 nM

CCCCS(=O)(=O)N[C@@H](Cc1ccc(OCCCCC2CCNCC2)cc1)C(=O)O [TIROFIBAN]
half-life [31]: 0.5 h

CC[C@H]1NC(=O)c2cccc(c2)CNC(=O)[C@H](CC(=O)O)NC(=O)CNC(=O)[C@H](CCCN=C(N)N)N(C)C1=O (cyclo([NMeR]GD[3Amb][dAbu]))
IC50 [8]: 2.3 nM
Kd [32]: 0.1 nM
bioavailability [33]: 12%

Cc1c(C(=O)NCCC(=O)O)s/c(=N\C(=O)c2ccc(C(=N)N3CCC4(CC3)OCCO4)cc2)n1C
inhibition [34]: > 80%

CCOC(=O)CN1CCN(C[C@@H]2CN(c3ccc(C(N)=NC(=O)OC)cc3)C(=O)O2)CC1 [GANTOFIBAN]
half-life [35]: 6 h
bioavailability [36]: 40%

C[C@H](CC(=O)O)NC(=O)CN1CCC[C@@H](CCC2CCNCC2)C1=O
inhibition [37]: > 90%
bioavailability [17]: 16%
Kd [20]: 650 nM

COc1ccc(C[C@H](NC(=O)[C@H](CC(=O)O)NC(=O)CNC(=O)[C@@H](N)CCCNC(=N)N)C(N)=O)cc1 (H-RGDY(Me)-NH2)
IC50 [8]: 27000 nM

O=C(O)C[C@H](NC(=O)[C@@H]1CCCN(C(=O)CCC2CCNCC2)C1)c1cccnc1 [ELAROFIBAN]
half-life [38]: 1.42 h

O=C(NC[C@H](NS(=O)(=O)c1ccccc1)C(=O)O)c1ccc(N2CCNCC2)cc1
IC50 [39]: 17 nM

C[C@@]1(c2ccc(C(=N)N)cc2)NC(=O)N(CC(=O)NC(CC(=O)O)c2ccccc2)C1=O (some centres not stated)
bioavailability [17]: 42%
half-life [13]: 9.9 h

O=C(NC[C@H](NS(=O)(=O)c1cccnc1)C(=O)O)c1cc2cc(CCC3CCNCC3)sc2s1
inhibition [40]: > 80%
IC50 [2]: 8 nM

Source: ChEMBL document CHEMBL1133644, “Platelet glycoprotein IIb-IIIa antagonists as prototypical integrin blockers: novel parenteral and potential oral antithrombotic agents” (J Med Chem, 2000)
